Data on 13 compounds can be found in ChEMBL document CHEMBL3877279, “Design, synthesis, in-silico and biological evaluation of novel donepezil derivatives as multi-target-directed ligands for the treatment of Alzheimer's disease” (Eur J Med Chem, 2017).

The source made the active and inactive calls. The calls are words filed in the database; no cut-off is given here.

In test [1] the target is Acetylcholinesterase (Electrophorus electricus, UniProt O42275). The experiment in a line: Inhibition of Electric eel AChE using acetylthiocholine iodide as substrate preincubated for 5 mins followed by substrate addition measured after 2 mins by Ellman's method. (In general: In Ellman's method for cholinesterases, released thiocholine reacts with DTNB.)
Acetylcholinesterase, sequence (O42275 whole entry): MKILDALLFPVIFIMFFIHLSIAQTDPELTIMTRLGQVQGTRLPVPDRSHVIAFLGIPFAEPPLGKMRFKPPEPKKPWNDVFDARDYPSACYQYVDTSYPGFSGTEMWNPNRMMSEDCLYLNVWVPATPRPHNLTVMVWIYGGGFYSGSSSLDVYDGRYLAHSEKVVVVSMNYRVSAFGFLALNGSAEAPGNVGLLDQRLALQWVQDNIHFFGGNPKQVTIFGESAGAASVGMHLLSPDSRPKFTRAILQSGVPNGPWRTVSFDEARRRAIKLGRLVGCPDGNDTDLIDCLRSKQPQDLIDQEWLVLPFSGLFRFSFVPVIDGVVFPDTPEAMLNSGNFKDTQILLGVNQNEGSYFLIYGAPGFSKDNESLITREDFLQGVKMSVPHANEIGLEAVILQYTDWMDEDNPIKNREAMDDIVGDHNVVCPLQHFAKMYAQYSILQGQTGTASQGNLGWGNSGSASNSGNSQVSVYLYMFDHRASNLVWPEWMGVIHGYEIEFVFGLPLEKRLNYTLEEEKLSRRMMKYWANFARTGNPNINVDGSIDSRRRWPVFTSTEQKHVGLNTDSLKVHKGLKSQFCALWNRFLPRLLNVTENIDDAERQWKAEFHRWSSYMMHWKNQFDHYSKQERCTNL
The target in test [2] is Cholinesterase (Equus caballus, UniProt P81908). Briefly: Inhibition of equine serum BuChE using butyrylthiocholine iodide as substrate preincubated for 5 mins followed by substrate addition measured after 2 mins by Ellman's method. The test is classed as ADME.
Cholinesterase, sequence (P81908 whole entry): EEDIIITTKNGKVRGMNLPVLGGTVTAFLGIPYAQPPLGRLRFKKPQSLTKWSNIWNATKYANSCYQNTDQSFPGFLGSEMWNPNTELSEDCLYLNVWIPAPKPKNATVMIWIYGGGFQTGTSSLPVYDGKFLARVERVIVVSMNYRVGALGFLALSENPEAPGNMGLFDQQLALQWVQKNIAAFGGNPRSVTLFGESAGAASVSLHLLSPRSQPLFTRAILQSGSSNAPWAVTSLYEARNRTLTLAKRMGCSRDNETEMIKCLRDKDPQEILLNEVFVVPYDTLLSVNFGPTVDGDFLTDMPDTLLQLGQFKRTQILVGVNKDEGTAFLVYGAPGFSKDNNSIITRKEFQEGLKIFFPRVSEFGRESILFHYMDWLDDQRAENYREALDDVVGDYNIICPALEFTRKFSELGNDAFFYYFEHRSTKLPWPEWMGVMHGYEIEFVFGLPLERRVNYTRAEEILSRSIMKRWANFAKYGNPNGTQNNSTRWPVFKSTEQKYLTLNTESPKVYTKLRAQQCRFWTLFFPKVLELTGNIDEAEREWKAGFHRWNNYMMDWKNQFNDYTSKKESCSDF
A short description of test [3]: Selectivity index, ratio of IC50 for equine serum BuChE to IC50 for Electric eel AChE.
For test [4], the target named is T1, Amyloid-beta precursor protein (Homo sapiens, UniProt P05067). Briefly: Inhibition of HFIP-pretreated amyloid beta (1 to 42) (unknown origin) self-induced aggregation at 25 uM after 48 hrs by thioflavin-T fluorescence assay relative to control.
T1 sequence (P05067 whole entry): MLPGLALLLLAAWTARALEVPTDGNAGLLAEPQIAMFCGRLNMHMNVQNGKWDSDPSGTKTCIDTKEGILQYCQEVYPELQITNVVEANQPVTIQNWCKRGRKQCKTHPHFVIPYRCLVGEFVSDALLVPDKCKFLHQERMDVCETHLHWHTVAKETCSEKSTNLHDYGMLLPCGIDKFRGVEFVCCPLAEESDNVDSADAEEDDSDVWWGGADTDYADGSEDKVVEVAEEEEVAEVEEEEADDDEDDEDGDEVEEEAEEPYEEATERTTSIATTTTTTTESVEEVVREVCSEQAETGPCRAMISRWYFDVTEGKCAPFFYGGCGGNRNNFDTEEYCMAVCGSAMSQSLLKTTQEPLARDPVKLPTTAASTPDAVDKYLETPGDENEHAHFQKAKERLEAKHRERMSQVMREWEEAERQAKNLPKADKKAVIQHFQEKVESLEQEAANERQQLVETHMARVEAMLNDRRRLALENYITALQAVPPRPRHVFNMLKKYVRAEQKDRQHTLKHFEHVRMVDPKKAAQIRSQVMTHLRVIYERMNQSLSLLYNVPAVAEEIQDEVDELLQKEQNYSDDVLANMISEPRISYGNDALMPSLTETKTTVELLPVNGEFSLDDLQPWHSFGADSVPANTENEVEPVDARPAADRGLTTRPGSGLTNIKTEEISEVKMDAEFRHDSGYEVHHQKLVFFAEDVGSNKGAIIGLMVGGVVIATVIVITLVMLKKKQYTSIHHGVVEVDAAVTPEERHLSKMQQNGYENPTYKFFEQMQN
Test [5] can be described thus: Antioxidant activity assessed as trolox equivalent of AAPH radical scavenging activity at 1 to 25 uM preincubated for 15 mins followed by AAPH addition measured every min for 80 mins by ORAC-FL assay. The test is classed as functional.
Test [6] has as its target T1, Amyloid-beta precursor protein. The experiment in a line: Inhibition of HFIP-pretreated amyloid beta (1 to 42) (unknown origin) self-induced aggregation after 48 hrs by thioflavin-T fluorescence assay.
The target is the same in test [7]. Briefly: Inhibition of amyloid beta (1 to 42) (unknown origin) fibril formation at 25 uM after 48 hrs by uranyl acetate staining based transmission electron microscopic method.
The target is the same in test [8]. The experiment in a line: Potency index, ratio of compound effect to curcumin effect for inhibition of HFIP-pretreated amyloid beta (1 to 42) (unknown origin) self-induced aggregation at 25 uM.

Take `COc1cc2c(cc1OC)C(=O)/C(=C/c1ccc(N3CCN(c4ccc(C)cc4C)CC3)cc1)C2`: the IC50 (commonly the concentration needed to halve the response being measured) came out at 112 nM in test [1] and 5130 nM in test [2]. Further, in test [3], the Ratio IC50 turned out to be 45.8. In addition, the inhibition (in general, the relative decrease from the control value, in per cent) in test [4] was determined as 65.7%. In test [5], the Activity (umolequiv/umol) worked out at 1.35.
In the case of `COc1cc2c(cc1OC)C(=O)/C(=C/c1ccc(N3CCN(c4ccc(C)cc4)CC3)cc1)C2`, the IC50 in test [1] was found to be 194 nM; in test [2], 1850 nM. The Ratio IC50 in test [3] came out at 9.5. The inhibition in test [4] was found to be 63.5%. For the same compound, in test [5], the Activity (umolequiv/umol) came to 1.3.
`COc1cc2c(cc1OC)C(=O)/C(=C/c1ccc(N3CCN(c4ccccn4)CC3)cc1)C2`: the concentration for half-maximal inhibition (IC50) in test [1] is 105 nM; in test [2], 1740 nM. The Ratio IC50 in test [3] amounted to 16.5. Moreover, the inhibition in test [4] is 73.3%. In addition, the Activity (umolequiv/umol) in test [5] was 2.08.
Take `COc1cc2c(cc1OC)C(=O)/C(=C/c1ccc(N3CCN(C(c4ccccc4)c4ccccc4)CC3)cc1)C2`: the IC50 in test [1] stood at 82 nM; in test [2], 4890 nM; in test [6], 12200 nM. In addition, the Ratio IC50 in test [3] came out at 59.6. For the same compound, the inhibition in test [4] was determined as 78.2%. Besides, in test [5], the Activity (umolequiv/umol) was 1.41.
As to `COc1cc(/C=C/C(=O)CC(=O)/C=C/c2ccc(O)c(OC)c2)ccc1O`, in test [7], the inhibition entry was “Active”.
As for `COc1cc2c(cc1OC)C(=O)/C(=C/c1ccc(N3CCN(c4ccc(C(F)(F)F)cc4)CC3)cc1)C2`, the IC50 in test [1] was found to be 153 nM; in test [2], 214 nM. Besides, the Ratio IC50 in test [3] was 1.4. Besides, the inhibition in test [4] amounted to 64.2%. The Activity (umolequiv/umol) in test [5] is 1.72.
For the compound `COc1cc2c(cc1OC)C(=O)/C(=C/c1ccc(N3CCN(c4ccccc4)CC3)cc1)C2`, the results for the IC50 in test [1] and in test [2] were 1310 nM and 5980 nM, respectively. Also, in test [3], the Ratio IC50 was found to be 4.5. The inhibition in test [4] stood at 51.1%. Moreover, the Activity (umolequiv/umol) in test [5] was 0.64.
With `COc1cc2c(cc1OC)C(=O)/C(=C/c1ccc(N3CCN(c4ccc(F)cc4)CC3)cc1)C2`, the IC50 in test [1] was 528 nM; in test [2], 3240 nM. In test [3], the Ratio IC50 was 6.1. Also, the inhibition in test [4] worked out at 66.8%. Also, the Activity (umolequiv/umol) in test [5] was 1.93.
For `COc1cc2c(cc1OC)C(=O)/C(=C/c1ccc(N3CCN(Cc4ccc5c(c4)OCO5)CC3)cc1)C2` the same measures were 1860 nM, 12200 nM, 6.5, 64.5% and 3.35.
For the compound `COc1cc2c(cc1OC)C(=O)/C(=C/c1ccc(N3CCN(c4ccc(Cl)cc4)CC3)cc1)C2`, the results for the IC50 in test [1] and in test [2] were 291 nM and 2220 nM, respectively. Also, the Ratio IC50 in test [3] was 7.6. Moreover, the inhibition in test [4] was found to be 59.5%. Besides, the Activity (umolequiv/umol) in test [5] is 1.87.
For `COc1cc2c(cc1OC)C(=O)/C(=C/c1ccc(N3CCN(C(=O)c4ccccc4)CC3)cc1)C2`, the IC50 in test [1] was 1700 nM; in test [2], 365 nM. In addition, the Ratio IC50 in test [3] stood at 0.2. Further, the inhibition in test [4] was found to be 61.4%. For the same compound, the Activity (umolequiv/umol) in test [5] worked out at 2.31.
Regarding `COc1ccc(N2CCN(c3ccc(/C=C4\Cc5cc(OC)c(OC)cc5C4=O)cc3)CC2)cc1`, the half-maximal inhibitory concentration (IC50) amounted to 119 nM in test [1] and 603 nM in test [2]. For the same compound, the Ratio IC50 in test [3] came to 5.06. For the same compound, in test [4], the inhibition was 70.5%. The Ratio in test [8] stood at 1.26. Further, the Activity (umolequiv/umol) in test [5] came out at 3.39.
Consider `COc1cc2c(cc1OC)C(=O)/C(=C/c1ccc(N3CCN(Cc4ccccc4)CC3)cc1)C2`, for which the IC50 in test [1] was 2620 nM; in test [2] it was 88 nM. The Ratio IC50 in test [3] worked out at 0.03. In test [4], the inhibition was 48.5%. Moreover, the Activity (umolequiv/umol) in test [5] came to 1.69.
